The results in this text go back to ChEMBL document CHEMBL2331317, “Synthesis and structure-activity relationships for 1-(4-(piperidin-1-ylsulfonyl)phenyl)pyrrolidin-2-ones as novel non-carboxylate inhibitors of the aldo-keto reductase enzyme AKR1C3” (Eur J Med Chem, 2013).

Where a chain is given by its changes, count along the chain named. The source made the active and inactive calls. No cut-off for these calls is given here.

Assay [1] has as its target T1, Aldo-keto reductase family 1 member C1 (Homo sapiens, UniProt Q04828).
T1 sequence (Q04828 whole entry): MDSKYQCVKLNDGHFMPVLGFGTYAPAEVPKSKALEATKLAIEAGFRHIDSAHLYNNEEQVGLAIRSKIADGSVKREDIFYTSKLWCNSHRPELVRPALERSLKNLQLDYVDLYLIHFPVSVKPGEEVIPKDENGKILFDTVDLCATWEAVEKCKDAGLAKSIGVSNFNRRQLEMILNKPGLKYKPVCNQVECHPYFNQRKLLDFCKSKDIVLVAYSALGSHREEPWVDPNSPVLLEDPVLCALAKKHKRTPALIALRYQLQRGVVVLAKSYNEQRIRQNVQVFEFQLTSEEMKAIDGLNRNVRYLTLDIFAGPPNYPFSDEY
The experiment in a line: Inhibition of His-tagged human AKR1C1 expressed in Escherichia coli BL21 (DE3) assessed as inhibition of reduction of non-fluorescent ketone probe to fluorescent alcohol after 1 hr by competitive fluorescence assay.

Assay [2] addresses T2, Prostaglandin G/H synthase 1 (Homo sapiens, UniProt P23219). Kind of assay: Inhibition of COX1 (unknown origin) at 10 uM.
For assay [3], the target named is T3, Aldo-keto reductase family 1 member C2 (Homo sapiens, UniProt P52895).
T3 sequence (P52895 whole entry): T1 sequence (Q04828 whole entry) with T38V, R47H, L54V, C87S, V151M, R170H, Q172L
Kind of assay: Inhibition of His-tagged human AKR1C2 expressed in Escherichia coli BL21 (DE3) assessed as inhibition of reduction of non-fluorescent ketone probe to fluorescent alcohol after 1 hr by competitive fluorescence assay.

The target in assay [4] is T4, Prostaglandin G/H synthase 2 (Homo sapiens) (UniProt P35354).
T4 sequence (whole entry): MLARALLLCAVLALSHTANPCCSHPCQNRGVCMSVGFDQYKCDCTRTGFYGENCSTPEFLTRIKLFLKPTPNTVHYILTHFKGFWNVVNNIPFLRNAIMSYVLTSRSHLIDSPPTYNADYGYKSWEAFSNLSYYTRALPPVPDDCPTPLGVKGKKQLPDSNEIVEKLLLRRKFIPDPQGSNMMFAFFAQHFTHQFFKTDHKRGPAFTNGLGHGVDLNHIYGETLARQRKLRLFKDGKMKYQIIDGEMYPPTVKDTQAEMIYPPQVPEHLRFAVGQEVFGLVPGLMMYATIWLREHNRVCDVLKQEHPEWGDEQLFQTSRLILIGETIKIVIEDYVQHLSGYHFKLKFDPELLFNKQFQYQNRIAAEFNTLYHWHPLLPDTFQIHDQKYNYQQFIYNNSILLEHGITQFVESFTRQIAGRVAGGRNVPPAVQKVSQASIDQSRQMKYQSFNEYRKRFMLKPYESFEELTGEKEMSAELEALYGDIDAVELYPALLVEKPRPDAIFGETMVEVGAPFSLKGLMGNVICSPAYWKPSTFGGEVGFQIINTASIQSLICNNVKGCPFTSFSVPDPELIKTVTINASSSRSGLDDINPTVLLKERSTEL
The experiment in a line: Inhibition of COX2 (unknown origin) at 10 uM.

The target in assay [5] is T5, Aldo-keto reductase family 1 member C4 (Homo sapiens, UniProt P17516).
T5 sequence (P17516 whole entry): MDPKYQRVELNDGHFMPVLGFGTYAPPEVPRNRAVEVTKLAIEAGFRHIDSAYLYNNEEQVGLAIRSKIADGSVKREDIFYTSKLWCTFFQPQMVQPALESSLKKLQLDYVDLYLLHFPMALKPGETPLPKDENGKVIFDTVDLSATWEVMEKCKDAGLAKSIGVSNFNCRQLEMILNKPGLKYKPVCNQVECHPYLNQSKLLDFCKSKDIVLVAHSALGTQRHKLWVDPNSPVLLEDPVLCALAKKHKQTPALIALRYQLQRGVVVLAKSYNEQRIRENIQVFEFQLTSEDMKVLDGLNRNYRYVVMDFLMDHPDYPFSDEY
The experiment in a line: Inhibition of His-tagged human AKR1C4 expressed in Escherichia coli BL21 (DE3) assessed as inhibition of reduction of non-fluorescent ketone probe to fluorescent alcohol after 1 hr by competitive fluorescence assay.

The target of assay [6] is T6, Aldo-keto reductase family 1 member C3 (Homo sapiens, UniProt P42330).
T6 sequence (P42330 whole entry): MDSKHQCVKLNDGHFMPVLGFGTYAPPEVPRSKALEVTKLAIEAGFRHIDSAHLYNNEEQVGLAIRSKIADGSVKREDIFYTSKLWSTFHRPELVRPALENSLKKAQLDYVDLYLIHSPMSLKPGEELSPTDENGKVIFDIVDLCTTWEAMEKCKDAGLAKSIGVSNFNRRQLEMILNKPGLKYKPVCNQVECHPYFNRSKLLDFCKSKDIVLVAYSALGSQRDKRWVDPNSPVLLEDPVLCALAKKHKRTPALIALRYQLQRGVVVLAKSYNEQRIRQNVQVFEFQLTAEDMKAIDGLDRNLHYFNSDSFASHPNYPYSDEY
Kind of assay: Inhibition of His-tagged human AKR1C3 expressed in Escherichia coli BL21 (DE3) assessed as inhibition of reduction of non-fluorescent ketone probe to fluorescent alcohol after 1 hr by competitive fluorescence assay.

In assay [7] the target is T1, Aldo-keto reductase family 1 member C1. The experiment in a line: Inhibition of AKR1C1 (unknown origin).
Assay [8] concerns the target T5, Aldo-keto reductase family 1 member C4. The experiment in a line: Inhibition of AKR1C4 (unknown origin).
Assay [9] deals with T7, Prostaglandin G/H synthase 2 (Homo sapiens, UniProt P35354).
T7 sequence (P35354 whole entry): T4 sequence (whole entry)
Kind of assay: Inhibition of COX2 (unknown origin).

In assay [10] the target is T2, Prostaglandin G/H synthase 1. Kind of assay: Inhibition of COX1 (unknown origin).
Assay [11] addresses T6, Aldo-keto reductase family 1 member C3. Kind of assay: Inhibition of recombinant AKR1C3 (unknown origin) overexpressed in human HCT116 cells assessed as inhibition of aerobic reduction of dinitrobenzamide PR-104A to its hydroxylamine metabolite by LC-MS/MS assay. The assay is classed as cell-based, HCT-116.

T2 sequence (P23219 whole entry): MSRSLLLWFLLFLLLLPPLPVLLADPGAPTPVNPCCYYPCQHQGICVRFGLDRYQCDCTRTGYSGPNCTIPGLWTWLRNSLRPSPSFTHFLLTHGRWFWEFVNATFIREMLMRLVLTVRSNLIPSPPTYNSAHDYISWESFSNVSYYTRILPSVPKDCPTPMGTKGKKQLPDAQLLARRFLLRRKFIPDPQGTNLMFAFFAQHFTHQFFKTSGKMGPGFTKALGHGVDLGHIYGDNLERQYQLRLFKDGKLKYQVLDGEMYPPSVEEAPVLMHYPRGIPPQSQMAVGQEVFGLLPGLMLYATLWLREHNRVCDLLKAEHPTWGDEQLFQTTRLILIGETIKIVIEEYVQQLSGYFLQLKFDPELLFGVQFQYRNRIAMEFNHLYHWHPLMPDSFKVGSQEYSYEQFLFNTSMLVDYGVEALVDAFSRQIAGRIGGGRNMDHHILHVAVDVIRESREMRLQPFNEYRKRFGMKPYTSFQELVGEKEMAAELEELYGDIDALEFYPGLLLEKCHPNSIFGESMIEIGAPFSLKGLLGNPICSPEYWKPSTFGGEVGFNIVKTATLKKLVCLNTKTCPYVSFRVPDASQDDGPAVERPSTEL

As for `CC1CCCCN1S(=O)(=O)c1ccc(N2CCCC2=O)cc1` (racemic), the half-maximal inhibitory concentration (IC50) in assay [1], in [3] and in assay [5] was greater than 30 µM throughout. In addition, the inhibition result in assay [2] and in [4] was “inactive” in each case.

On to `CC1CCCCN1S(=O)(=O)c1ccc(N2CCCCC2=O)cc1` (stereo unspecified), for which the IC50 in assay [1] is greater than 30 µM; in assay [6] it was 3.77 µM; in [3], greater than 30 µM; in assay [5], greater than 30 µM.

Regarding `CC1CCCCN1S(=O)(=O)c1ccc(N2C(=O)CCC2=O)cc1` (stereo unspecified), the IC50 in [6] was greater than 30 µM.

`C[C@@H]1CCCCN1S(=O)(=O)c1ccc(N2CCCC2=O)cc1`: the IC50 in assay [1], in assay [3] and in [5] was greater than 30 µM each time.

As to `O=C1CCCN1c1ccc(S(=O)(=O)N2CCOCC2)cc1`, the IC50 in assay [6] is greater than 30 µM.

`C[C@@H]1CN(S(=O)(=O)c2ccc(N3CCCC3=O)cc2)C[C@H](C)N1`: the IC50 in assay [6] stood at 21.2 µM.

`O=C1CCCN1c1ccc(S(=O)(=O)N2CCC[C@H](O)C2)cc1`: the IC50 in assay [1] is greater than 30 µM; in assay [6], 8.98 µM; in [3], greater than 30 µM; in [5] it was greater than 30 µM.

Turning to `Cc1cccc(Nc2ccccc2C(=O)O)c1C` [MEFENAMIC ACID], the IC50 in assay [7] is 3.91 µM; in assay [8] it was greater than 100 µM; in [9] it was 2900 nM; in assay [10] it was 25 µM.

As to `CC1CCCCN1S(=O)(=O)c1ccc(N2C(=O)c3ccccc3C2=O)cc1` (stereo unspecified), in assay [6], the IC50 is greater than 30 µM.

On to `Cc1cc(S(=O)(=O)N2CCCCC2C)c(C)cc1N1CCCC1=O` (stereo unspecified), for which, in assay [6], the IC50 was greater than 30 µM.

For `O=C1CCCN1c1ccc(S(=O)(=O)N2CCCC2)cc1`, the IC50 in [6] was greater than 30 µM.

For `CC1CCCN(S(=O)(=O)c2ccc(N3CCCC3=O)cc2)C1` (stereo unspecified), the IC50 in assay [1] is greater than 30 µM; in assay [6] it was 0.084 µM; in assay [3], greater than 30 µM; in assay [11], 15 nM; in assay [5], greater than 30 µM.

Regarding `CC1CCCCN1S(=O)(=O)c1ccc(N2CCC2=O)cc1` (stereo unspecified), the IC50 in assay [1] is greater than 30 µM; in assay [6] it was 5.61 µM; in [3] it was greater than 30 µM; in assay [5], greater than 30 µM.

Turning to `CC1CCCCN1S(=O)(=O)c1ccc(N2CCCC2=O)cn1` (stereo unspecified), the IC50 is greater than 30 µM in [1], 2.77 µM in assay [6], greater than 30 µM in assay [3] and greater than 30 µM in assay [5].

With `CC1CCCCN1S(=O)(=O)c1ccc(NC(=O)C(C)(C)C)cc1` (stereo unspecified), the IC50 is greater than 30 µM in assay [1], 5.94 µM in assay [6], greater than 30 µM in assay [3] and greater than 30 µM in assay [5].

Take `CC1CCCCN1Cc1ccc(N2CCCC2=O)cc1` (stereo unspecified): the IC50 in [6] is greater than 30 µM.

The compound `O=C(O)c1ccccc1Nc1cccc(C(F)(F)F)c1` [FLUFENAMIC ACID] yielded an IC50 in assay [10] of 3 µM.

On to `CC1CCCCN1S(=O)(=O)c1ccccc1N1CCCC1=O` (stereo unspecified), for which the IC50 in [6] was greater than 30 µM.

In the case of `CC(C)C(=O)Nc1ccc(S(=O)(=O)N2CCCCC2C)cc1` (stereo unspecified), the IC50 in assay [6] came to 12.5 µM.

Regarding `Cc1ccc(Cl)c(Nc2ccccc2C(=O)O)c1Cl` [MECLOFENAMIC ACID], the figures for the IC50 in [9] and in assay [10] were 700 nM and 0.22 µM, respectively.

In the case of `O=C1CCCN1c1ccc(S(=O)(=O)N2CCc3ccccc3C2)cc1`, in [6], the IC50 came out at 0.052 µM.

As to `O=C1CCCN1c1ccc(S(=O)(=O)N2CCC[C@@H](O)C2)cc1`, the IC50 was greater than 30 µM in assay [1], 1.55 µM in [6], greater than 30 µM in assay [3] and greater than 30 µM in [5].

Take `CC1CCCCN1S(=O)(=O)c1cccc(N2CCCC2=O)c1` (stereo unspecified): the IC50 in assay [6] was greater than 30 µM.

For `CC1CCN(S(=O)(=O)c2ccc(N3CCCC3=O)cc2)CC1`, the IC50 in assay [1] is greater than 30 µM; in assay [6], 0.2 µM; in assay [3], greater than 30 µM; in assay [5] it was greater than 30 µM.

Turning to `CC1CCCCN1C(=O)c1ccc(N2CCCC2=O)cc1` (stereo unspecified), in assay [6], the IC50 was greater than 30 µM.

With `Cc1cc(S(=O)(=O)N2CCCCC2C)ccc1N1CCCC1=O` (stereo unspecified), in assay [6], the IC50 came out at 10.2 µM.

Take `C[C@H]1CCC[C@H](C)N1S(=O)(=O)c1ccc(N2CCCC2=O)cc1`: the IC50 in assay [1] is greater than 30 µM; in assay [6] it was 0.056 µM; in assay [3], greater than 30 µM; in assay [11], 22 nM; in assay [5] it was greater than 30 µM.

As to `O=C1CCCN1c1ccc(S(=O)(=O)N2CCCCC2)cc1`, the concentration for half-maximal inhibition (IC50) in assay [1] was greater than 30 µM; in assay [6] it was 0.14 µM; in assay [3], greater than 30 µM; in assay [5], greater than 30 µM. Also, the inhibition result in assay [2] and in [4] was “inactive” each time.

As for `CC1CCCCN1S(=O)(=O)c1ccc(N2CCCS2(=O)=O)cc1` (stereo unspecified), the IC50 in [1] was greater than 30 µM; in assay [6] it was 5.22 µM; in assay [3] it was greater than 30 µM; in [5], greater than 30 µM.
